The values below come from PMC6207338 (Nature medicine, 2018).

Numbering of substitutions follows the chain as printed. Like-named read-outs stand apart in the source and are kept apart here.

One data set concerns glucose production. To be noted: i.v. infusion; cited from earlier work.
Another data set addresses T1, mouse FBP1 Y114F (Mus musculus, UniProt Q9QXD6, Y114F).
T1 sequence (Q9QXD6 1-338 Y114F): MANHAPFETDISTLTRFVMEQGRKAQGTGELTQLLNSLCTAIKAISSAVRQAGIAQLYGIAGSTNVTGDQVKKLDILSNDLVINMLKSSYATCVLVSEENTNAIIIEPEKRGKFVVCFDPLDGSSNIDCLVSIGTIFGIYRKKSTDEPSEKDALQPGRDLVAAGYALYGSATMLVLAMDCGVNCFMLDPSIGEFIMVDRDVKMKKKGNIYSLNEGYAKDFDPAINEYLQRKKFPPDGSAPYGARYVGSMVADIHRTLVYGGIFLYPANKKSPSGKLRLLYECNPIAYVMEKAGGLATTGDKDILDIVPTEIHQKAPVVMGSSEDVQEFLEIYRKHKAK
The data set can be described thus: FBPase coupled assay, mouse FBP1 Y114F. Format: biochemical. The note with it: untagged Y114F, data not shown.

A further data set addresses T2, mouse FBP1 (WT) (Mus musculus, UniProt Q9QXD6).
T2 sequence (Q9QXD6 1-338): T1 sequence (Q9QXD6 1-338 Y114F) with F114Y
Briefly: FBPase coupled assay, recombinant mouse FBP1 WT. Format: biochemical.

Another data set is described as follows: [11C]-metformin microPET. Type of data set: in vivo, mouse. To be noted: acute intravenous [11C]-metformin, WT vs KI mice.
The test system of data set [1] is FBP1^WT/WT (WT) and FBP1^G27P/G27P (KI) mice. The data set can be described thus: AICAR tolerance in mice. Type of data set: in vivo, mouse. The note with it: 250 mg.kg^-1 i.p.
The test system of data set [2] is gastrocnemius (GAS) muscle. Briefly: Skeletal muscle adenine/Z nucleotides after AICAR. Type of data set: in vivo, mouse. To be noted: following AICAR treatment.
The next data set deals with AMPK. The data set can be described thus: AMPK activation in tissue by Western blotting / kinase assay. Format: in vivo, mouse.
The next data set concerns rabbit muscle AMPD1. Briefly: AMPD1 assay. Type of data set: biochemical. The note with it: rabbit muscle AMPD1, up to 10 mM.
The nature of the next data set: in vivo. The note with it: mouse, plasma, po, 250 mg.kg^-1.
Data set [3] in a line: Metformin assay in plasma and tissues.
The subject of data set [4] is FBP1^WT/WT (WT) and FBP1^G27P/G27P (KI) mice. Briefly: Metformin-euglycemic clamp. Format: in vivo, mouse.
For the next data set, the system named is isolated hepatocytes. The note with it: lactate and pyruvate as sole carbon sources, 1 mM; cited from earlier work.
For data set [5] the following is noted: rats, cited from earlier work.
For data set [6] the following is noted: random blood samples from diabetic subjects; cited from earlier work.
The next data set concerns mouse liver. The data set can be described thus: Liver adenine/Z nucleotides and metabolites after drug treatment. Type of data set: in vivo. The note with it: 250 mg.kg^-1 p.o.
A further data set deals with HFD-fed WT and KI mice. Briefly: Metformin in high-fat diet. The note with it: 250 mg.kg^-1 p.o., 2 h.
Where [7] appears, read: end of clamp, 1.875 mg.kg^-1.min^-1 i.v.

With `N#Cc1c(O)c2c(-c3ccc(-c4ccccc4O)cc3)csc2[nH]c1=O` [A769662], the “effect on glucose production” value in the data set on glucose production is “no effect on glucose production”.

`O=P(O)(O)OC[C@H]1O[C@@](CO)(OP(=O)(O)O)[C@@H](O)[C@@H]1O` [F-2,6-P2, fructose-2,6-bisphosphate]: at mouse FBP1 Y114F, the “IC50 for F-2,6-P2” value is reported as “increased IC50”.

`CC(C)Cc1sc(N)nc1-c1ccc(P(=O)(O)O)o1` [MB05032, 2-amino-5-isobutyl-4-[5-phosphono-2-furanyl]thiazole]: the “fold less sensitive, mouse FBP1 compared to rat FBP1” value at mouse FBP1 (WT) (recombinant, in vitro) is ~ 2 fold.

On to `CN([11CH3])C(=N)N=C(N)N` [[^11C]-metformin], for which the “kinetics and total metformin uptake in liver (PET)” value in data set [11C]-metformin microPET was “comparable between WT and KI mice”.

With `NC(=O)c1ncn([C@@H]2O[C@H](CO)[C@@H](O)[C@H]2O)c1N` [AICAR, 5-aminoimidazole-4-carboxamide-1-β-D-ribofuranoside], the blood lactate levels entry in [1] (KI mice, t = 60 min) is recorded as “only modestly”. Moreover, the plasma insulin levels result in data set [1] (WT and KI mice, t = 60 min) is listed as “no significant change”. Moreover, in [1] (WT mice, fasted 16 h), the “decrease in blood glucose levels” value is ~ 60%. Besides, in data set [1] (WT mice, t = 60 min), the blood lactate levels result was “marked increase” and the plasma glucagon levels entry was “increased”. Moreover, in [2], the “ZMP concentration in skeletal muscle, fold less compared to liver” value is listed as > 50 fold and the “[ZMP]:[ATP] ratio in skeletal muscle, fold less compared to liver” value was > 150 fold. In addition, in the data set with AMPK (liver, WT and KI mice, AICAR 250 mg.kg^-1 i.p., 60 min), the “phosphorylation of liver AMPK and ACC” value is reported as “robustly stimulated”. Also, the “AMPKα T172 phosphorylation and activity in skeletal muscle” value in the data set with AMPK (skeletal muscle, both genotypes, AICAR 250 mg.kg^-1 i.p., 60 min) was “failed to increase”.

With `CN(C)C(=N)N=C(N)N` [metformin, N,N-dimethylbiguanide], the “inhibition of AMP deaminase 1 (AMPD1)” value in the data set with rabbit muscle AMPD1 was “Neither does it appear to inhibit”. For the same compound, the concentration at 1 h in “in vivo” was in the range of 125 to 150 µM. Moreover, the “direct inhibitory effect on FBP1” value on mouse FBP1 (WT) (purified mouse FBP1, up to 10 mM) is listed as “does not have a direct inhibitory effect on FBP1 up to 10 mM”. In data set [3] (250 mg.kg^-1 p.o., 1 h, comparable between genotypes), the liver metformin level is given as ~ 0.7 μmol.g^-1. For the same compound, in [3] (setting [7]), the liver metformin was ~ 0.8 μmol.g^-1. Further, the plasma metformin in [3] (setting [7]) is recorded as ~ 170 μM. Also, the “glucose infusion rate (GIR)” value was “failed to increase GIR significantly from baseline” in data set [4] (1.875 mg.kg^-1.min^-1 i.v., WT (and also KI) mice); “only a modest increase in GIR” in data set [4] (3.75 mg.kg^-1.min^-1 i.v., KI mice, 120 min clamp); “substantial increase in GIR” in data set [4] (3.75 mg.kg^-1.min^-1 i.v., WT mice, 120 min clamp). Also, the “suppression of EndoRa, gluconeogenesis and glycogenolysis” value in [4] (3.75 mg.kg^-1.min^-1 i.v., KI mice) was “ablated”. In data set [4] (3.75 mg.kg^-1.min^-1 i.v., WT mice), the “suppression of endogenous glucose production (EndoRa)” value was ~ 20%. In data set [4] (3.75 mg.kg^-1.min^-1 i.v., both WT and KI), the “increase in glucose disposal rate (Rd)” value was 40-50%. The “reduction in intracellular ATP concentration” value in the data set on isolated hepatocytes is recorded as ~ 85%. Besides, the plasma metformin concentration in data set [5] (50 mg.kg^-1 intravenously, 30 min after administration) was ~ 74 μM; in data set [5] (100 mg.kg^-1), 345 µM; in [5] (250 mg.kg^-1) it was 1300 µM. Moreover, the “plasma metformin levels, upper end of range” value in data set [6] is 868 µM. Moreover, in the data set with mouse liver (both genotypes), the “decrease in hepatic energy charge” value was ~ 10%. Moreover, in the data set with mouse liver (both genotypes), the “increase in hepatic [AMP]:[ATP]” value was ~ 2 fold. Also, in the data set on mouse liver (HFD-fed mice, 2 h), the “hepatic cAMP” value was “no significant effect”. In the data set on HFD-fed WT and KI mice (HFD-fed KI mice), the “decrease of blood glucose” value is ~ 10%. The “reduction of blood glucose levels” value in the data set on HFD-fed WT and KI mice (HFD-fed WT mice) is 30-40%. Besides, the “phosphorylation of liver AMPK and ACC” value in the data set on AMPK (mouse, in vivo, po) was “robust increase”.
